Experimental data: patent US20100227853A1, “INHIBITORS OF CYCLIC AMP PHOSPHODIESTERASES” (Trustees of Boston College, priority 2008, published 2010)

Columns and labels:
PDE7A = PDE7A (Homo sapiens, UniProt Q13946); experiment: 5FOA growth assay in fission yeast strain expressing PDE7A; format: cell-based; set-up: targets used in the assays are full-length proteins (as opposed to simply the catalytic domain); expressed in transfected cells; host or cells: Schizosaccharomyces pombe, PDE gene integrated in place of cgs2; details: high throughput 5FOA growth screen
In short: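 Growth stimulation, reported as composite Z scores, was read as OD600 after 48 h at 30 °C in 5FOA medium. Before this, reporter (fbp1-ura4) yeast were grown at 30 °C in EMM with 0–2.5 mM cAMP or 0.5/1.0 mM cGMP to repress the reporter, then exposed to 100 nl pinned compound (stocks generally 10 mM).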

PDE4A5 = molecular target: T1, PDE4A5 (Rattus norvegicus, UniProt P54748); experiment: 5FOA growth assay in fission yeast strain expressing PDE4A5; format: cell-based; details: high throughput 5FOA growth screen
T1 construct: targets used in the assays are full-length proteins (as opposed to simply the catalytic domain); expressed in transfected cells; host or cells: Schizosaccharomyces pombe, PDE gene integrated in place of cgs2
T1 sequence (P54748 1-844): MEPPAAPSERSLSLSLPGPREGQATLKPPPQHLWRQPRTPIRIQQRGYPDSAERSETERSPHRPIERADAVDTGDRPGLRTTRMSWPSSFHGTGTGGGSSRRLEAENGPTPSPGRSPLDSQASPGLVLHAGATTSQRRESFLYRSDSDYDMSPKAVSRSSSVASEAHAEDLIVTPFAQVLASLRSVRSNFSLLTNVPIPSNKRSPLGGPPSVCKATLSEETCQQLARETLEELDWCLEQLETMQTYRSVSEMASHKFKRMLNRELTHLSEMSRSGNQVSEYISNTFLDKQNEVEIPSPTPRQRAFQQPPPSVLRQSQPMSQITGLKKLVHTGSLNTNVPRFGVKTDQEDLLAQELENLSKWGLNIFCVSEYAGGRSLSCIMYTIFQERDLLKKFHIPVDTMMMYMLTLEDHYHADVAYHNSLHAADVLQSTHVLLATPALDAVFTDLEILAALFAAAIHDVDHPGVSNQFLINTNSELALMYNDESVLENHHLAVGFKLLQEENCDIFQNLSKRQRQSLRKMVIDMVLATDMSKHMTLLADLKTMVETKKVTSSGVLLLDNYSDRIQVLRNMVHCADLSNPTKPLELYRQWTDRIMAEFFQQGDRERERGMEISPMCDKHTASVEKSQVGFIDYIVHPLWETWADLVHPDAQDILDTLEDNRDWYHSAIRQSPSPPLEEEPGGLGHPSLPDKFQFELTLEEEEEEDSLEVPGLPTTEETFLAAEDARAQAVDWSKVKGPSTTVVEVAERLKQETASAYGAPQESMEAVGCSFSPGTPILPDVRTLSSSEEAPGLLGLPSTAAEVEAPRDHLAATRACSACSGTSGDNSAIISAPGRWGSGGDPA
Method: High throughput drug screens were carried out at the Broad Institute's Chemical Biology Program screening facility (Broad Institute, Cambridge, Mass.). Depending upon the strain, cultures were pregrown to exponential phase in EMM complete medium containing from 0.5 to 2.5 mM cAMP to repress fbp1-ura4 transcription. Cells were collected by centrifugation, resuspended in 5FOA medium, and 25 μl were transferred to 384-well microtiter dishes (untreated, with flat clear bottoms) that had been pre-filled with 25 μl 5FOA medium and pre-pinned with 100 nl of compounds (stock solutions were generally 10 mM) from a subset of the Prestwick Bioactive and the Microsource Spectrum compound libraries. Starting cell concentrations ranged from 0.5×10^5 to 4×10^5 cells/ml depending on the screening strain. […] Other positive control dishes contained 5 mM cAMP in the 5FOA medium. Cultures were grown for 48 hours at 30° C., sealed in an airtight container with moist paper towels to prevent evaporation. Optical densities (OD600) of cultures were measured using a microplate reader. Bioinformatic analysis of the results to determine composite Z scores was performed as previously described^30, 31.
Cells were pregrown in EMM medium [MP Biomedicals (Solon, Ohio), 3% glucose, filter-sterilized to avoid carmelization, which would introduce variability into the optical density of the medium] containing from 0 mM to 2.5 mM cAMP (or either 0.5 mM or 1.0 mM cGMP). This was to repress expression of the fbp1-ura4 reporter prior to exposure of cells to 5FOA medium. Cells were grown at 30° C. to exponential phase (approximately 10^7 cells/ml). Cells were collected by centrifugation and resuspended in 5FOA medium, and 25 μl were transferred to 384-well microtiter dishes (untreated, with flat clear bottoms) that had been pre-filled with 25 μl 5FOA medium and pre-pinned with 100 nl of compounds (stock solutions were generally 10 mM). Starting cell concentrations ranged from 0.5×10^5 to 4×10^5 cells/ml depending on the screening strain. […] Other positive control dishes contained 5 mM cAMP in the 5FOA medium for PDEs that lack appropriate control compounds. Cultures were grown for 48 hours at 30° C., sealed in an airtight container with moist paper towels to prevent evaporation. Optical densities (OD600) of cultures were measured using a microplate reader. Bioinformatic analysis of the results to determine composite Z scores was performed as previously described (1, 3).

Sequence of PDE7A (Q13946 whole entry, the tested form may be a part): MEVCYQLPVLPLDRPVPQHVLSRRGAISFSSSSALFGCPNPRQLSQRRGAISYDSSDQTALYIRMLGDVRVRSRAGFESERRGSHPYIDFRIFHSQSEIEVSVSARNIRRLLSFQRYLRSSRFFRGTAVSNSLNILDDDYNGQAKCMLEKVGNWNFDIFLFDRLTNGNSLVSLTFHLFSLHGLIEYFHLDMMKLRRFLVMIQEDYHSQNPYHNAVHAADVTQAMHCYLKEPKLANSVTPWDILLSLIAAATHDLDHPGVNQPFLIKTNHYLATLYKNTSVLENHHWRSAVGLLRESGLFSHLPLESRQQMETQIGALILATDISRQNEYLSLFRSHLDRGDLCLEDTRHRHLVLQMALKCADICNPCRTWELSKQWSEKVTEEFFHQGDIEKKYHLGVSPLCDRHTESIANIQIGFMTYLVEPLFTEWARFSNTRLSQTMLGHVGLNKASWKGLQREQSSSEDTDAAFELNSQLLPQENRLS

SMILES | Composite Z score, PDE7A (PDE7A) | Composite Z score, PDE4A5 (PDE4A5)
COc1ccccc1CNC(=O)c1sc2ncnc(N3CCN(c4ccccc4F)CC3)c2c1C [2041 E21] | 0.5923 | 2.4446
CNc1nc(=S)[nH]c2sc3c(c12)CCCC3 [2054 E08] | −0.995 | −0.378
CC1CC(=O)N(c2ncnc3sc4c(c23)CCCC4)N1 (stereo not drawn) [2054 E16] | −0.737 | 0.5516
Cc1c(C(=O)Nc2ccc(F)cc2F)sc2ncnc(N(C)c3ccccc3)c12 [Compound 58-9] | 123.57 | 111.95
c1csc(CCNc2ncnc3sc4c(c23)CCC4)c1 [Compound 2005M12] | −0.398 | −0.574
CCOC(=O)c1sc2nc(C)nc(N3CCC(C)CC3)c2c1C [Compound 2007D06] | −0.759 | −10.3
CCCCN(CC)C(=O)c1sc2ncnc(N3CCN(c4ccc(OC)cc4)CC3)c2c1C [Compound 2007H06] | 1.5462 | −10.26
CCOC(=O)c1sc2nc(C)nc(N(C)Cc3ccccc3)c2c1C [Compound 2007L04] | 0.2354 | 13.196
Cc1nc(NCCc2ccccc2)c2c3c(sc2n1)CCCC3 [Compound 2008G09] | 0.03 | −4.881
O=C(/C=C/c1ccccc1)Nc1ncnc2sc3c(c12)CCC3 [Compound 2008K11] | 0.9074 | −4.329
COc1ccc(CCNc2ncnc3sc4c(c23)CCCC4)cc1 [Compound 2012B19] | 26.421 | 20.422
O=C(Nc1ncnc2sc3c(c12)CCCCC3)c1ccc(F)cc1 [Compound 2012F09] | 30.877 | 26.878

Other lines, results leading:

Composite Z score, PDE7A (PDE7A) | Composite Z score, PDE4A5 (PDE4A5) | SMILES
−0.757 | −0.102 | CC(C)CC(Nc1ncnc2sc3c(c12)CCC3)C(=O)O (stereo not drawn) [Compound 2012H20]
−0.684 | −0.334 | Cc1cc(C)c(C)c(S(=O)(=O)N2CCN(c3ncnc4sc5c(c34)CCCC5)CC2)c1C [Compound 2012L13]
1.8846 | 0.289 | O=C(O)CCNc1ncnc2sc3c(c12)CCCC3 [Compound 2012O16]
−0.593 | −0.897 | CCOC(CNc1nc(C)nc2sc3c(c12)CCCC3)OCC [Compound 2040D04]
1.5898 | 2.5342 | CCOC(=O)c1sc2nc(Cc3ccccc3)nc(NCCC3CCCCC3)c2c1C [Compound 2040F07]
−1.481 | 1.7466 | Cc1nc(N2CCCCC2)c2c(C)c(C(=O)Nc3cccc(C(F)(F)F)c3)sc2n1 [Compound 2040F10]
−0.598 | −0.722 | Cc1c(C(=O)NCCC(C)C)sc2ncnc(N3CCOCC3)c12 [Compound 2040F13]
1.3549 | 3.411 | Cc1c(C(=O)NCCC2CCCCC2)sc2ncnc(N3CCCCC3C)c12 (stereo not drawn) [Compound 2040H10]
0.6002 | 0.4891 | COc1cc(OC)c(NC(=O)c2sc3ncnc(N4CCCCC4C)c3c2C)cc1Cl (stereo not drawn) [Compound 2040J10]
